According to ChEMBL document CHEMBL3621092, “Lipid-conjugated Smac analogues” (Bioorg Med Chem Lett, 2015):

tested on: MDA-MB-231; experiment: Induction of apoptosis in human MDA-MB-231 cells assessed as increase in caspase-3/7 activity incubated for 24 hrs by luminescence based assay; type: functional, cell-based; details: not given

Row | SMILES | Activity
1 | CCCCCCCCCCCCCCCC(=O)N(CC(=O)NCCCC[C@H](NC(=O)[C@H](C)NC)C(=O)N1CCC[C@H]1C(=O)NC(c1ccccc1)c1ccccc1)CC(=O)NCCCC[C@H](NC(=O)[C@H](C)NC)C(=O)N1CCC[C@H]1C(=O)NC(c1ccccc1)c1ccccc1 | Dose-dependent effect

tested on: not listed separately; experiment: Stability in mouse plasma incubated at 37 degC by LC/MS method; type: ADME, cell-free; details: read-out: Stability

Row | half-life [h] | SMILES
2 | < 31 | CCCCCCCCCCCCCCCC(=O)N(CC(=O)NCCCC[C@H](NC(=O)[C@H](C)NC)C(=O)N1CCC[C@H]1C(=O)NC(c1ccccc1)c1ccccc1)CC(=O)NCCCC[C@H](NC(=O)[C@H](C)NC)C(=O)N1CCC[C@H]1C(=O)NC(c1ccccc1)c1ccccc1

tested on: MDA-MB-231; experiment: Growth inhibition of human MDA-MB-231 cells assessed as reduction in cell viability incubated for 48 hrs by PrestoBlue dye based florescence assay; type: functional; details: MDA-MB-231, 48 h

Row | EC50 [µM] | SMILES
3 | 9.6 | CN[C@@H](C)C(=O)N[C@@H](CSCc1ccc(CSC[C@H](NC(=O)[C@H](C)NC)C(=O)N2CCC[C@H]2C(=O)NC(c2ccccc2)c2ccccc2)cc1)C(=O)N1CCC[C@H]1C(=O)NC(c1ccccc1)c1ccccc1
4 | 18.4 | CN[C@@H](C)C(=O)N[C@@H](CSCc1ccc(Oc2ccc(CSC[C@H](NC(=O)[C@H](C)NC)C(=O)N3CCC[C@H]3C(=O)NC(c3ccccc3)c3ccccc3)cc2)cc1)C(=O)N1CCC[C@H]1C(=O)NC(c1ccccc1)c1ccccc1
5 | 34.8 | CN[C@@H](C)C(=O)N[C@@H](CCCCNC(=O)Nc1ccc(NC(=O)NCCCC[C@H](NC(=O)[C@H](C)NC)C(=O)N2CCC[C@H]2C(=O)NC(c2ccccc2)c2ccccc2)cc1)C(=O)N1CCC[C@H]1C(=O)NC(c1ccccc1)c1ccccc1
6 | > 100 | CN[C@@H](C)C(=O)N[C@@H](CCCCNC(=O)CNCC(=O)NCCCC[C@H](NC(=O)[C@H](C)NC)C(=O)N1CCC[C@H]1C(=O)NC(c1ccccc1)c1ccccc1)C(=O)N1CCC[C@H]1C(=O)NC(c1ccccc1)c1ccccc1
7 | > 100 | CN[C@@H](C)C(=O)N[C@@H](CCCCNC(=N)N)C(=O)N1CCC[C@H]1C(=O)NC(c1ccccc1)c1ccccc1
8 | > 100 | CN[C@@H](C)C(=O)N[C@@H](CO)C(=O)N1CCC[C@H]1C(=O)NC(c1ccccc1)c1ccccc1
9 | > 100 | CN[C@@H](C)C(=O)N[C@@H](CCCCN)C(=O)N1CCC[C@H]1C(=O)NC(c1ccccc1)c1ccccc1
10 | > 100 | CN[C@@H](C)C(=O)N[C@@H](CSCc1cccc(Cc2cccc(CSC[C@H](NC(=O)[C@H](C)NC)C(=O)N3CCC[C@H]3C(=O)NC(c3ccccc3)c3ccccc3)c2)c1)C(=O)N1CCC[C@H]1C(=O)NC(c1ccccc1)c1ccccc1
11 | > 100 | CN[C@@H](C)C(=O)N[C@@H](CSCC(=O)NCCNC(=O)CSC[C@H](NC(=O)[C@H](C)NC)C(=O)N1CCC[C@H]1C(=O)NC(c1ccccc1)c1ccccc1)C(=O)N1CCC[C@H]1C(=O)NC(c1ccccc1)c1ccccc1
12 | > 100 | CN[C@@H](C)C(=O)N[C@@H](CCCCNC(=O)NCCCC[C@H](NC(=O)[C@H](C)NC)C(=O)N1CCC[C@H]1C(=O)NC(c1ccccc1)c1ccccc1)C(=O)N1CCC[C@H]1C(=O)NC(c1ccccc1)c1ccccc1
13 | 4 | CN[C@@H](C)C(=O)N[C@@H](CSCc1ccc(-c2ccc(CSC[C@H](NC(=O)[C@H](C)NC)C(=O)N3CCC[C@H]3C(=O)NC(c3ccccc3)c3ccccc3)cc2)cc1)C(=O)N1CCC[C@H]1C(=O)NC(c1ccccc1)c1ccccc1
14 | 11.3 | CCCCCCCCCCCCCCCCSCc1cc(CSC[C@H](NC(=O)[C@H](C)NC)C(=O)N2CCC[C@H]2C(=O)NC(c2ccccc2)c2ccccc2)cc(CSC[C@H](NC(=O)[C@H](C)NC)C(=O)N2CCC[C@H]2C(=O)NC(c2ccccc2)c2ccccc2)c1
15 | > 100 | CN[C@@H](C)C(=O)N[C@@H](CS)C(=O)N1CCC[C@H]1C(=O)NC(c1ccccc1)c1ccccc1
16 | 14.4 | CN[C@@H](C)C(=O)N[C@@H](CCCCNC(=O)Nc1ccc(Oc2ccc(NC(=O)NCCCC[C@H](NC(=O)[C@H](C)NC)C(=O)N3CCC[C@H]3C(=O)NC(c3ccccc3)c3ccccc3)cc2)cc1)C(=O)N1CCC[C@H]1C(=O)NC(c1ccccc1)c1ccccc1
17 | 4.2 | CCCCCCCCCCCCCCCC(=O)N(CC(=O)NCCCC[C@H](NC(=O)[C@H](C)NC)C(=O)N1CCC[C@H]1C(=O)NC(c1ccccc1)c1ccccc1)CC(=O)NCCCC[C@H](NC(=O)[C@H](C)NC)C(=O)N1CCC[C@H]1C(=O)NC(c1ccccc1)c1ccccc1
18 | > 100 | CN[C@@H](C)C(=O)N[C@@H](CCCCNC(=O)CCCCCCC(=O)NCCCC[C@H](NC(=O)[C@H](C)NC)C(=O)N1CCC[C@H]1C(=O)NC(c1ccccc1)c1ccccc1)C(=O)N1CCC[C@H]1C(=O)NC(c1ccccc1)c1ccccc1
19 | 49.9 | CN[C@@H](C)C(=O)N[C@@H](CSSC(C)(C)C)C(=O)N1CCC[C@H]1C(=O)NC(c1ccccc1)c1ccccc1
20 | > 100 | CCCCCCCCCCCCCCCCCCCCCCCC(=O)NCCCC[C@H](NC(=O)[C@H](C)NC)C(=O)N1CCC[C@H]1C(=O)NC(c1ccccc1)c1ccccc1
21 | 7.4 | CN[C@@H](C)C(=O)N[C@@H](CSCc1cccc(CSC[C@H](NC(=O)[C@H](C)NC)C(=O)N2CCC[C@H]2C(=O)NC(c2ccccc2)c2ccccc2)c1)C(=O)N1CCC[C@H]1C(=O)NC(c1ccccc1)c1ccccc1
22 | 4.3 | CCCCCCCCCCCCCCCC(=O)OCCN(CC(=O)NCCCC[C@H](NC(=O)[C@H](C)NC)C(=O)N1CCC[C@H]1C(=O)NC(c1ccccc1)c1ccccc1)CC(=O)NCCCC[C@H](NC(=O)[C@H](C)NC)C(=O)N1CCC[C@H]1C(=O)NC(c1ccccc1)c1ccccc1
23 | 52.4 | CN[C@@H](C)C(=O)N[C@@H](CSCCS(=O)(=O)CCSC[C@H](NC(=O)[C@H](C)NC)C(=O)N1CCC[C@H]1C(=O)NC(c1ccccc1)c1ccccc1)C(=O)N1CCC[C@H]1C(=O)NC(c1ccccc1)c1ccccc1
24 | 9.7 | CN[C@@H](C)C(=O)N[C@@H](CCCCNC(=O)O[C@H]1CC[C@@]2(C)C(=CCC3C2CC[C@@]2(C)C3CC[C@@H]2[C@H](C)CCCC(C)C)C1)C(=O)N1CCC[C@H]1C(=O)NC(c1ccccc1)c1ccccc1 (some centres not stated)

Row | SMILES | EC50 [µM]
25 | CN[C@@H](C)C(=O)N[C@@H](CCCCNC(=O)OCC1c2ccccc2-c2ccccc21)C(=O)N1CCC[C@H]1C(=O)NC(c1ccccc1)c1ccccc1 | 19

tested on: MDA-MB-231; experiment: Induction of apoptosis in human MDA-MB-231 cells assessed as increase in caspase-3/7 activity incubated for 24 hrs by luminescence based assay relative to control; type: functional; details: not given

Row | SMILES | fold change (FC)
26 | CN[C@@H](C)C(=O)N[C@@H](CSCc1ccc(-c2ccc(CSC[C@H](NC(=O)[C@H](C)NC)C(=O)N3CCC[C@H]3C(=O)NC(c3ccccc3)c3ccccc3)cc2)cc1)C(=O)N1CCC[C@H]1C(=O)NC(c1ccccc1)c1ccccc1 | 2.7
27 | CN[C@@H](C)C(=O)N[C@@H](CCCCNc1cc(NCCCC[C@H](NC(=O)[C@H](C)NC)C(=O)N2CCC[C@H]2C(=O)NC(c2ccccc2)c2ccccc2)c([N+](=O)[O-])cc1[N+](=O)[O-])C(=O)N1CCC[C@H]1C(=O)NC(c1ccccc1)c1ccccc1 | 2.7
